PMC6911004, “Fragment-based screening identifies molecules targeting the substrate-binding ankyrin repeat domains of tankyrase” (Scientific Reports, 2019)
Converted amounts (≈) assume the structure as drawn. “Also recorded” adds a separate entry of the source.

Key:
TNKS2 ARC4 (488–649) = biological target: T1, TNKS2 ARC4 (488–649) (Homo sapiens, UniProt Q9H2K2); experiment: Protein-observed 1H-15N HSQC NMR titration (chemical shift perturbation); assay type: binding; conditions: for 15N NMR / 15N HSQC chemical shift perturbations (CSPs): 15N-labelled TNKS2 ARC4
T1 construct: The cell was filled with TNKS2 ARC4 (488–649); His6-GST (cleaved yes); made in house; host or cells: E. coli BL21-CodonPlus (DE3)-RIL
T1 sequence (Q9H2K2 488-649): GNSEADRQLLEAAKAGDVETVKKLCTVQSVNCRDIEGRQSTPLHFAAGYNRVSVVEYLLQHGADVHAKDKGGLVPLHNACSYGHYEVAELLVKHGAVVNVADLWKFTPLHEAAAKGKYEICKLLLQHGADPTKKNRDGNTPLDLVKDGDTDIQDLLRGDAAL
Description: We next tested validated hits from both the DSF and NMR screens against TNKS2 ARC4 using protein-observed NMR. This included 16 compounds in total: 14 fragments identified by DSF and confirmed to bind TNKS2 ARC5 by both relaxation-edited and waterLOGSY methods and two unique fragments identified by NMR and confirmed to bind TNKS2 ARC4 by both ligand-observed NMR methods. We used the 3BP2 TBM peptide as a positive control. To directly identify fragment binding sites on the ARC, we performed a full backbone and partial side-chain assignment of TNKS2 ARC4, doubly labelled with ^15N and ^13C isotopes. The assignment details have been reported elsewhere. […] The different binding regimes may distinguish primary interaction hotspots that are engaged robustly when a peptide is first recruited (slow exchange) from secondary binding sites in the ARC that become occupied once primary binding hotspots are engaged; these may be more dynamic (fast exchange).
We then titrated compounds against ^15N-labelled TNKS2 ARC4, initially at protein:compound ratios of 1:1 and 1:3. […] We confirmed that the CSPs were not caused by pH changes during the titration by measuring the pH of the peptide and fragment stocks (at 3 mM) in assay buffer. Consistent with TBM-competitive binding of fragments 3 and 5, we identified several peaks that shifted in both fragment and 3BP2 TBM peptide titrations. […] However, the solubility of fragments 3 and 5 in assay buffer limited the maximum concentration achievable, and so complete saturation was not reached. This confounded affinity measurements and more extensive analyses of the fragment binding sites by protein-observed NMR.
^15N-labelled TNKS2 ARC4 (488–649) (300 μM final concentration; 5 μL of 3 mM stock) in NMR buffer (45 μL, 25 mM HEPES-NaOH pH 7.5, 100 mM NaCl, 1 mM TCEP, 10% D2O) was used as the baseline sample. Peptide titration samples (Table 6) were prepared by diluting the 16-mer 3BP2 peptide with NMR buffer (45 μL), then adding TNKS2 ARC4 (300 μM final concentration; 5 μL of 3 mM stock). Separate samples were prepared for each concentration point. Fragment titration samples (Table 7) were prepared by diluting fragments in NMR buffer (25 mM HEPES-NaOH pH 7.5, 100 mM NaCl, 1 mM TCEP, 10% D2O) and backfilling with DMSO to keep a constant DMSO concentration of 5%. ^15N-labelled TNKS2 ARC4 (300 μM final concentration; 5 μL of 3 mM stock) was added. Protein with 5% DMSO alone was used as the baseline. Separate samples were prepared for each concentration point. ^1H-^15N HSQC spectra were acquired over 3 h, with 64 scans and a spectrum width of 16.00 ppm for ^1H and 29.00 ppm for ^15N. The pH of the peptide and fragment stocks (at 3 mM) was confirmed to exclude the possibility that peak shifts were due to changes in pH during the titration.
Peaks that shifted were picked manually in each spectrum. The chemical shifts for each peak were measured and exported into Microsoft Excel, where the change in chemical shift from baseline was calculated for hydrogen and nitrogen shifts. The average Euclidean distance shifted (d) was then calculated using Eq. 2, weighting the different nuclei:2 d=√{1/2[δH2+(α.δN2)]},whereα=0.14
Values of d were plotted against ligand concentration in GraphPad Prism, and fitted with Eq. 3:3 Δδobs=Δδmax{([P]t+[L]t+Kd)−[([P]t+[L]t+Kd)^2−4[P]t[L]t]^1/2/2[P]t
Kd values were calculated for each peak that shifted individually. The mean of all shifting peaks was then calculated to give an apparent Kd value.

[1] = Fragment solubility assay by NMR; assay type: physicochemical; conditions: NMR buffer (HEPES-NaOH) with 5% DMSO, aqueous with cosolvent or surfactant or cyclodextrin, kinetic from dmso stock; NMR buffer pH 7.5, 5% DMSO, 500 μM nominal
Method: Fragments were dispensed into a 384-well plate (250 nL of 100 mM stock in DMSO, 500 μM final concentration) using an ECHO acoustic dispenser. DMSO (2.25 μL) was added, then NMR buffer (47.5 μL, 25 mM HEPES-NaOH pH 7.5, 100 mM NaCl, 1 mM TCEP, 10% D2O). The plate was centrifuged (1 min, 1000 × g) before the solutions were transferred to 1.7 mm NMR tubes using a Gilson liquid handling system. ^1H NMR spectra were recorded with the DMSO and water signals dampened. 100 μM caffeine was used as an external standard to quantify the ligand signals.

TNKS2 ARC4 = biological target: T2, TNKS2 ARC4 (Homo sapiens, UniProt Q9H2K2); experiment: T2 relaxation-edited ligand-observed NMR assay; assay type: binding; conditions: for T2 relaxation-edited: competition with 3BP2 TBM peptide: 3BP2 16-mer peptide 100 μM
T2 construct: The cell was filled with TNKS2 ARC4 (488–649); His6-GST; made in house; host or cells: E. coli
T2 sequence (Q9H2K2 488-649): T1 sequence (Q9H2K2 488-649)
Method: We next sought close structural analogues of hit fragments 3 and 5 to gain early insights into structure-activity relationships (SAR) and binding modes of hit fragments. We initially tested the analogues using both relaxation-edited and waterLOGSY NMR assays against TNKS2 ARC4 (Table 1), followed by protein-observed NMR if binding was detected in both ligand-observed NMR experiments.
Fragments were dispensed in duplicate into a 384-well plate (250 nL, 100 mM stock in DMSO). Wells were backfilled with DMSO (2.25 μL). Tankyrase ARC protein (47.5 μL in 25 mM HEPES, pH 7.5, 100 mM NaCl, 2 mM TCEP, 10% D2O; 20 μM final protein concentration in the assay) was added to the ‘protein’ samples; buffer only (47.5 μL) was added to the ‘compound-only’ samples. Solutions were transferred to 1.7 mm NMR tubes using a Gilson liquid handling system. ^1H NMR spectra were recorded, with the DMSO and water signals dampened. A relaxation spin filter was applied at 400 ms[65]. Data were processed using Bruker Topspin 3.14. Lines were broadened with LB = 3.0, and the baseline was corrected between 6.0–10.0 ppm. The average integral for all peaks between 6.0–10.0 ppm was calculated, and the difference between compound-only and compound-plus-protein samples was compared. A reduction in signal integrals of ≥15% was classified as a hit. For competitive experiments, 3BP2 16-mer peptide (100 μM) was added, and the spectra were recorded and processed as above. The variability in signal reduction in the relaxation-edited experiment was previously determined as approximately ± 10% (Liu et al., unpublished observations).

[2] = TNKS2 ARC4 300 μM, fragment up to 4800 μM, 5% DMSO

solubility [1] [µM] | binding to TNKS2 ARC4 by ligand-observed NMR, in words (TNKS2 ARC4; DSF hit validation) | NMR Kd (apparent, mean of shifting peaks) (TNKS2 ARC4 (488–649); [2]) | T2 relaxation-edited: competition with 3BP2 TBM peptide (TNKS2 ARC4) | TNKS2 ARC4 binding of analogues, SAR summary in words (TNKS2 ARC4; relaxation-edited and waterLOGSY NMR) | Kd (TNKS2 ARC4 (488–649); TNKS2 ARC4 300 μM, fragment up to 4800 μM, 5% DMSO, read-out: NMR Kd (apparent, mean of shifting peaks)) [mM] | Molecule | 15N NMR / 15N HSQC chemical shift perturbations (CSPs) (TNKS2 ARC4 (488–649))
 |  |  |  |  |  | LPHLQRSPPDGQSFRSW [3BP2 16-mer peptide, 16-mer TBM peptide derived from 3BP2, W added for A280, N-terminus acetylated, C-terminus amide-capped; positive control, reference compound] | significant chemical shift perturbations
220 (≈ 48.2 µg/mL) | bound | no saturation |  |  |  | O=C(NCc1ccco1)c1ccc(F)cc1 [compound 3] | significant CSPs; also recorded: substantial CSPs; also recorded: CSPs observed
410 (≈ 115 µg/mL) |  | no saturation | competitive |  |  | O=C(NCc1ccc(F)cc1)c1ccc2nccnc2c1 [compound 5] | significant CSPs; also recorded: substantial CSPs; also recorded: CSPs observed
650 (≈ 165 µg/mL) |  |  | competitive | preserved binding | 1.05 | O=C(NCc1ccco1)c1ccc2nccnc2c1 [compound 9] | substantial CSPs; also recorded: significant CSPs
